{"source": "patent US20160346249A1", "about": "(priority 2012, published 2016)", "experiment": "Single rising oral dose (10-150 mg IR) safety, tolerance and pharmacokinetics in healthy male volunteers", "assay_type": "in vivo, human", "conditions": "human, plasma, oral; for MRT inf: read-out: MRT0-∞; for AUC(0-t): read-out: AUC0-t", "text": "Fifty (50) healthy male adult volunteers, between the ages of 19 and 43 years (mean±SD: 28±6 years) were enrolled in the study and randomized to the […] different treatments. […] The subjects were divided into panels of 10 subjects/dose group. Seven subjects in each group received the test drug, while three received an identical-looking placebo. […] The five treatments are outlined below:\nThe subjects were admitted to the clinic the night before dose administration and fasted from approximately 10 hour before to 4 hour after ingestion of the study capsules. Treatments were administered with 240 mL of mineral water between 08:00 and 09:00 hours. […] The assay calibration range was 5 to 2,000 ng/mL.\nThe values of Cmax and Tmax were the observed value for each subject. The terminal elimination rate constant λz was derived from the log-linear disposition phase of the concentration-time curve using linear least-squares regression for which the program determined the appropriate number of terminal points to calculate λz. At least three terminal plasma concentrations were used for estimating λz. The t1/2 (HL_Lambda_z) was calculated as ln 2/λz. AUC0-t and AUMC0-t were determined using the linear trapezoidal rule for each increasing concentration and the log-trapezoidal rule for descending concentrations. The AUC values from the last quantifiable time point to infinity was calculated as Ct/λz. This value was added to AUC0-t to obtain AUC0-∞. […] Oral clearance was calculated as Dose/AUC0-∞. The 90% confidence intervals were calculated for all of the variables.\nSAS, version 8.2, was used for the analysis.", "note": "Like-named read-outs stand apart in the source and are kept apart here.", "data": [{"smiles": "Clc1ccc([C@]23CNC[C@H]2C3)cc1Cl", "note": "[amitifadine, (+)-1-(3,4-dichlorophenyl)-3-azabicyclo[3.1.0]hexane]", "values": [{"measurement": "half-life", "setting": "10 mg, individual subject, read-out: t1/2 (converted)", "value": 3.47, "unit": "h"}, {"measurement": "MRT inf", "setting": "25 mg, individual subject", "value": 4.81, "unit": "h"}, {"measurement": "AUC(0-inf)", "setting": "50 mg, individual subject", "value": 1690, "unit": "ng·h/mL"}, {"measurement": "MRT inf", "setting": "50 mg, individual subject", "value": 5.18, "unit": "h"}, {"measurement": "half-life", "setting": "50 mg, individual subject, read-out: t1/2 (converted)", "value": 3.25, "unit": "h"}, {"measurement": "AUC(0-inf)", "setting": "100 mg, individual subject", "value": 5010, "unit": "ng·h/mL"}, {"measurement": "AUC(0-t)", "setting": "100 mg, individual subject", "value": 4960, "unit": "ng·h/mL"}, {"measurement": "MRT inf", "setting": "100 mg, individual subject", "value": 4.92, "unit": "h"}, {"measurement": "half-life", "setting": "100 mg, individual subject, read-out: t1/2 (converted)", "value": 3.94, "unit": "h"}, {"measurement": "AUC(0-inf)", "setting": "150 mg, individual subject", "value": 7300, "unit": "ng·h/mL"}, {"measurement": "AUC(0-t)", "setting": "150 mg, individual subject", "value": 7210, "unit": "ng·h/mL"}, {"measurement": "MRT inf", "setting": "150 mg, individual subject", "value": 5.67, "unit": "h"}, {"measurement": "AUC(0-inf)", "setting": "male, 10 mg, Geometric Mean", "value": 418, "unit": "ng·h/mL"}, {"measurement": "AUC(0-t)", "setting": "male, 10 mg, Geometric Mean", "value": 377, "unit": "ng·h/mL"}, {"measurement": "MRT inf", "setting": "male, 10 mg, Geometric Mean", "value": 5.21, "unit": "h"}, {"measurement": "Tmax", "setting": "male, 10 mg, Geometric Mean, read-out: Tmax", "value": 0.696, "unit": "h"}, {"measurement": "half-life", "setting": "male, 10 mg, Geometric Mean, read-out: t1/2 (converted)", "value": 3.4, "unit": "h"}, {"measurement": "AUC(0-inf)", "setting": "male, 10 mg, Mean (n = 7)", "value": 429, "unit": "ng·h/mL"}, {"measurement": "AUC(0-t)", "setting": "male, 10 mg, Mean (n = 7)", "value": 387, "unit": "ng·h/mL"}, {"measurement": "MRT inf", "setting": "male, 10 mg, Mean (n = 7)", "value": 5.23, "unit": "h"}, {"measurement": "half-life", "setting": "male, 10 mg, Mean (n = 7), read-out: t1/2 (converted)", "value": 3.42, "unit": "h"}, {"measurement": "AUC(0-inf)", "setting": "male, 10 mg, Median", "value": 454, "unit": "ng·h/mL"}, {"measurement": "AUC(0-t)", "setting": "male, 10 mg, Median", "value": 409, "unit": "ng·h/mL"}, {"measurement": "MRT inf", "setting": "male, 10 mg, Median", "value": 5.35, "unit": "h"}, {"measurement": "half-life", "setting": "male, 10 mg, Median, read-out: t1/2 (converted)", "value": 3.47, "unit": "h"}, {"measurement": "AUC(0-inf)", "setting": "male, 25 mg, Geometric Mean", "value": 1430, "unit": "ng·h/mL"}, {"measurement": "AUC(0-t)", "setting": "male, 25 mg, Geometric Mean", "value": 1340, "unit": "ng·h/mL"}, {"measurement": "MRT inf", "setting": "male, 25 mg, Geometric Mean", "value": 4.79, "unit": "h"}, {"measurement": "Tmax", "setting": "male, 25 mg, Geometric Mean, read-out: Tmax", "value": 0.863, "unit": "h"}, {"measurement": "half-life", "setting": "male, 25 mg, Geometric Mean, read-out: t1/2 (converted)", "value": 2.97, "unit": "h"}, {"measurement": "AUC(0-inf)", "setting": "male, 25 mg, Mean (n = 7)", "value": 1470, "unit": "ng·h/mL"}, {"measurement": "AUC(0-t)", "setting": "male, 25 mg, Mean (n = 7)", "value": 1390, "unit": "ng·h/mL"}, {"measurement": "MRT inf", "setting": "male, 25 mg, Mean (n = 7)", "value": 4.83, "unit": "h"}, {"measurement": "half-life", "setting": "male, 25 mg, Mean (n = 7), read-out: t1/2 (converted)", "value": 3.15, "unit": "h"}, {"measurement": "AUC(0-inf)", "setting": "male, 25 mg, Median", "value": 1300, "unit": "ng·h/mL"}, {"measurement": "AUC(0-t)", "setting": "male, 25 mg, Median", "value": 1190, "unit": "ng·h/mL"}, {"measurement": "MRT inf", "setting": "male, 25 mg, Median", "value": 4.65, "unit": "h"}, {"measurement": "half-life", "setting": "male, 25 mg, Median, read-out: t1/2 (converted)", "value": 3, "unit": "h"}, {"measurement": "AUC(0-inf)", "setting": "male, 50 mg, Geometric Mean", "value": 2420, "unit": "ng·h/mL"}, {"measurement": "AUC(0-t)", "setting": "male, 50 mg, Geometric Mean", "value": 2320, "unit": "ng·h/mL"}, {"measurement": "MRT inf", "setting": "male, 50 mg, Geometric Mean", "value": 5.23, "unit": "h"}, {"measurement": "Tmax", "setting": "male, 50 mg, Geometric Mean, read-out: Tmax", "value": 1.02, "unit": "h"}, {"measurement": "half-life", "setting": "male, 50 mg, Geometric Mean, read-out: t1/2 (converted)", "value": 3.65, "unit": "h"}, {"measurement": "AUC(0-inf)", "setting": "male, 50 mg, Mean (n = 7)", "value": 2490, "unit": "ng·h/mL"}, {"measurement": "AUC(0-t)", "setting": "male, 50 mg, Mean (n = 7)", "value": 2390, "unit": "ng·h/mL"}, {"measurement": "MRT inf", "setting": "male, 50 mg, Mean (n = 7)", "value": 5.25, "unit": "h"}, {"measurement": "half-life", "setting": "male, 50 mg, Mean (n = 7), read-out: t1/2 (converted)", "value": 3.68, "unit": "h"}, {"measurement": "AUC(0-inf)", "setting": "male, 50 mg, Median", "value": 2200, "unit": "ng·h/mL"}, {"measurement": "AUC(0-t)", "setting": "male, 50 mg, Median", "value": 2120, "unit": "ng·h/mL"}, {"measurement": "MRT inf", "setting": "male, 50 mg, Median", "value": 5.29, "unit": "h"}, {"measurement": "Tmax", "setting": "male, 50 mg, Median, read-out: Tmax", "value": 1, "unit": "h"}, {"measurement": "half-life", "setting": "male, 50 mg, Median, read-out: t1/2 (converted)", "value": 3.62, "unit": "h"}, {"measurement": "AUC(0-inf)", "setting": "male, 100 mg, Geometric Mean", "value": 4850, "unit": "ng·h/mL"}, {"measurement": "AUC(0-t)", "setting": "male, 100 mg, Geometric Mean", "value": 4780, "unit": "ng·h/mL"}, {"measurement": "MRT inf", "setting": "male, 100 mg, Geometric Mean", "value": 5.7, "unit": "h"}, {"measurement": "half-life", "setting": "male, 100 mg, Geometric Mean, read-out: t1/2 (converted)", "value": 4.15, "unit": "h"}, {"measurement": "AUC(0-inf)", "setting": "male, 100 mg, Mean (n = 7)", "value": 4880, "unit": "ng·h/mL"}, {"measurement": "AUC(0-t)", "setting": "male, 100 mg, Mean (n = 7)", "value": 4810, "unit": "ng·h/mL"}, {"measurement": "MRT inf", "setting": "male, 100 mg, Mean (n = 7)", "value": 5.75, "unit": "h"}, {"measurement": "half-life", "setting": "male, 100 mg, Mean (n = 7), read-out: t1/2 (converted)", "value": 4.15, "unit": "h"}, {"measurement": "AUC(0-inf)", "setting": "male, 100 mg, Median", "value": 4820, "unit": "ng·h/mL"}, {"measurement": "AUC(0-t)", "setting": "male, 100 mg, Median", "value": 4730, "unit": "ng·h/mL"}, {"measurement": "MRT inf", "setting": "male, 100 mg, Median", "value": 5.69, "unit": "h"}, {"measurement": "half-life", "setting": "male, 100 mg, Median, read-out: t1/2 (converted)", "value": 4.22, "unit": "h"}, {"measurement": "AUC(0-inf)", "setting": "male, 150 mg, Geometric Mean", "value": 8490, "unit": "ng·h/mL"}, {"measurement": "AUC(0-t)", "setting": "male, 150 mg, Geometric Mean", "value": 8360, "unit": "ng·h/mL"}, {"measurement": "MRT inf", "setting": "male, 150 mg, Geometric Mean", "value": 5.97, "unit": "h"}, {"measurement": "Tmax", "setting": "male, 150 mg, Geometric Mean, read-out: Tmax", "value": 1.63, "unit": "h"}, {"measurement": "half-life", "setting": "male, 150 mg, Geometric Mean, read-out: t1/2 (converted)", "value": 3.64, "unit": "h"}, {"measurement": "AUC(0-inf)", "setting": "male, 150 mg, Mean (n = 7)", "value": 8620, "unit": "ng·h/mL"}, {"measurement": "AUC(0-t)", "setting": "male, 150 mg, Mean (n = 7)", "value": 8510, "unit": "ng·h/mL"}, {"measurement": "MRT inf", "setting": "male, 150 mg, Mean (n = 7)", "value": 6.04, "unit": "h"}, {"measurement": "half-life", "setting": "male, 150 mg, Mean (n = 7), read-out: t1/2 (converted)", "value": 3.71, "unit": "h"}, {"measurement": "AUC(0-inf)", "setting": "male, 150 mg, Median", "value": 8010, "unit": "ng·h/mL"}, {"measurement": "AUC(0-t)", "setting": "male, 150 mg, Median", "value": 7940, "unit": "ng·h/mL"}, {"measurement": "MRT inf", "setting": "male, 150 mg, Median", "value": 5.87, "unit": "h"}, {"measurement": "half-life", "setting": "male, 150 mg, Median, read-out: t1/2 (converted)", "value": 3.68, "unit": "h"}, {"measurement": "half-life", "setting": "male, 10 to 150 mg, read-out: elimination half-life", "value": "3 to 4", "unit": "h"}, {"measurement": "Tmax", "setting": "male, 10 to 150 mg, read-out: mean Tmax", "value": "0.7 to 1.75", "unit": "h"}, {"measurement": "MRT", "setting": "male, 10 to 150 mg, read-out: mean residence time", "value": "5 to 6", "unit": "h"}]}]}
